From patent US10844077B2, “Thiazolyl-containing compounds for treating proliferative diseases” (Dana-Farber Cancer Institute, Inc., priority 2014, dated 2020)
Like-named read-outs stand apart in the source and are kept apart here.

Key:
Assay type in all cases: binding
broad panel of kinases [1] = target: broad panel of kinases (Homo sapiens, UniProt Q13470); conditions: TNK1; 1 μM
broad panel of kinases [2] = target: broad panel of kinases (Homo sapiens, UniProt Q08345); conditions: DDR1; 1 μM
broad panel of kinases [3] = target: broad panel of kinases (Homo sapiens, UniProt Q13237); conditions: PRKG2; 1 μM
broad panel of kinases [4] = target: broad panel of kinases (Homo sapiens, UniProt P42338); conditions: PIK3CB; 1 μM
broad panel of kinases [5] = target: broad panel of kinases (Homo sapiens, UniProt Q13976); conditions: PRKG1; 1 μM
broad panel of kinases [6] = target: broad panel of kinases (Homo sapiens, UniProt Q02750); conditions: MEK1; 1 μM
broad panel of kinases [7] = target: broad panel of kinases (Homo sapiens, UniProt P68400); conditions: CSNK2A1; 1 μM
broad panel of kinases [8] = target: broad panel of kinases (Homo sapiens, UniProt Q9P1W9); conditions: PIM2; 1 μM
broad panel of kinases [9] = target: broad panel of kinases (Homo sapiens, UniProt P22455); conditions: FGFR4; 1 μM
broad panel of kinases [10] = target: broad panel of kinases (Homo sapiens, UniProt Q9BUB5); conditions: MKNK1; 1 μM
broad panel of kinases [11] = target: broad panel of kinases (Homo sapiens, UniProt P00519, F317I); conditions: 1 μM
broad panel of kinases [12] = target: broad panel of kinases (Homo sapiens, UniProt Q6DT37); conditions: DMPK2; 1 μM
broad panel of kinases [13] = target: broad panel of kinases (Homo sapiens, UniProt Q92630); conditions: DYRK2; 1 μM
broad panel of kinases [14] = target: broad panel of kinases (Homo sapiens, UniProt Q9H2G2); conditions: SLK; 1 μM
broad panel of kinases [15] = target: broad panel of kinases (Homo sapiens, UniProt Q7L7X3); conditions: TAOK1; 1 μM
broad panel of kinases [16] = target: broad panel of kinases (Homo sapiens, UniProt Q16620); conditions: TRKB; 1 μM
broad panel of kinases [17] = target: broad panel of kinases (Homo sapiens, UniProt Q12866); conditions: MERTK; 1 μM
broad panel of kinases [18] = target: broad panel of kinases (Homo sapiens, UniProt Q9UQB9); conditions: AURKC; 1 μM
broad panel of kinases [19] = target: broad panel of kinases (Homo sapiens, UniProt O94768); conditions: DRAK2; 1 μM
broad panel of kinases [20] = target: broad panel of kinases (Homo sapiens, UniProt Q00532); conditions: CDKL1; 1 μM
broad panel of kinases [21] = target: broad panel of kinases (Homo sapiens, UniProt O00750); conditions: PIK3C2B; 1 μM
broad panel of kinases [22] = target: broad panel of kinases (Homo sapiens, UniProt P46734); conditions: MEK3; 1 μM
broad panel of kinases [23] = target: broad panel of kinases (Homo sapiens, UniProt Q8WU08); conditions: YANK1; 1 μM
broad panel of kinases [24] = target: broad panel of kinases (Homo sapiens, UniProt Q13523); conditions: PRP4; 1 μM
broad panel of kinases [25] = target: broad panel of kinases (Homo sapiens, UniProt Q13043); conditions: MST1; 1 μM
broad panel of kinases [26] = target: broad panel of kinases (Homo sapiens, UniProt Q6XUX3); conditions: RIPK5; 1 μM
broad panel of kinases [27] = target: broad panel of kinases (Homo sapiens, UniProt P80192); conditions: MLK1; 1 μM
broad panel of kinases [28] = target: broad panel of kinases (Homo sapiens, UniProt O95819); conditions: MAP4K4; 1 μM
broad panel of kinases [29] = target: broad panel of kinases (Homo sapiens, UniProt P06239); conditions: LCK; 1 μM
broad panel of kinases [30] = target: broad panel of kinases (Homo sapiens, UniProt Q8WXR4); conditions: MYO3B; 1 μM
broad panel of kinases [31] = target: broad panel of kinases (Homo sapiens, UniProt O15075); conditions: DCAMKL1; 1 μM
broad panel of kinases [32] = target: broad panel of kinases (Homo sapiens, UniProt O60285); conditions: ARK5; 1 μM
broad panel of kinases [33] = target: broad panel of kinases (Homo sapiens, UniProt Q16584); conditions: MLK3; 1 μM
broad panel of kinases [34] = target: broad panel of kinases (Homo sapiens, UniProt P54764); conditions: EPHA4; 1 μM
broad panel of kinases [35] = target: broad panel of kinases (Homo sapiens, UniProt Q16539); conditions: p38-alpha; 1 μM
broad panel of kinases [36] = target: broad panel of kinases (Homo sapiens, UniProt Q9P289); conditions: MST4; 1 μM
broad panel of kinases [37] = target: broad panel of kinases (Homo sapiens, UniProt P29323); conditions: EPHB2; 1 μM

Chain of broad panel of kinases (Homo sapiens, UniProt Q9P289) (Q9P289 2-416 limits assumed): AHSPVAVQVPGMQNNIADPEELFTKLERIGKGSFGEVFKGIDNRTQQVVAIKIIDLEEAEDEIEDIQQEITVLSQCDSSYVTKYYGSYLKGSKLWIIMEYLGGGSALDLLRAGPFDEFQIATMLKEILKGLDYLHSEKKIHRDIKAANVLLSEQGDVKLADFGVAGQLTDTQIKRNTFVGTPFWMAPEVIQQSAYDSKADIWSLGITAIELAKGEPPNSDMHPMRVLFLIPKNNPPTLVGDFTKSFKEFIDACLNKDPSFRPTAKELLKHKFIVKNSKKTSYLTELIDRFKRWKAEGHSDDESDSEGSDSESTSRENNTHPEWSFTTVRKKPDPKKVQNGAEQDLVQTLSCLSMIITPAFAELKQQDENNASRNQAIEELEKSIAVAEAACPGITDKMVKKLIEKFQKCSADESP
Chain of broad panel of kinases (Homo sapiens, UniProt Q8WU08) (Q8WU08 2-396 limits assumed): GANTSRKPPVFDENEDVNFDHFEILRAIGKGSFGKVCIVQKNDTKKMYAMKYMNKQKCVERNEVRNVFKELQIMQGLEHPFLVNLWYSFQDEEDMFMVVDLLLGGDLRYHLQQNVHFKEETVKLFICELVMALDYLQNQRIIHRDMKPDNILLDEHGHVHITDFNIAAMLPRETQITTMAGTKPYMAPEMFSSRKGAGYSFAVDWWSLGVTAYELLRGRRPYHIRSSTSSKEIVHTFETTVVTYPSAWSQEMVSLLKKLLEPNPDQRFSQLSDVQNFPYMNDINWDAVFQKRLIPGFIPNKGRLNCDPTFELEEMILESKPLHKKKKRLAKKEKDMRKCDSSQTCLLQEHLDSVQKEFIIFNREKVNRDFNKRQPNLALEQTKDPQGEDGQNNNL
Chain of broad panel of kinases (Homo sapiens, UniProt Q13976) (Q13976 2-671 limits assumed): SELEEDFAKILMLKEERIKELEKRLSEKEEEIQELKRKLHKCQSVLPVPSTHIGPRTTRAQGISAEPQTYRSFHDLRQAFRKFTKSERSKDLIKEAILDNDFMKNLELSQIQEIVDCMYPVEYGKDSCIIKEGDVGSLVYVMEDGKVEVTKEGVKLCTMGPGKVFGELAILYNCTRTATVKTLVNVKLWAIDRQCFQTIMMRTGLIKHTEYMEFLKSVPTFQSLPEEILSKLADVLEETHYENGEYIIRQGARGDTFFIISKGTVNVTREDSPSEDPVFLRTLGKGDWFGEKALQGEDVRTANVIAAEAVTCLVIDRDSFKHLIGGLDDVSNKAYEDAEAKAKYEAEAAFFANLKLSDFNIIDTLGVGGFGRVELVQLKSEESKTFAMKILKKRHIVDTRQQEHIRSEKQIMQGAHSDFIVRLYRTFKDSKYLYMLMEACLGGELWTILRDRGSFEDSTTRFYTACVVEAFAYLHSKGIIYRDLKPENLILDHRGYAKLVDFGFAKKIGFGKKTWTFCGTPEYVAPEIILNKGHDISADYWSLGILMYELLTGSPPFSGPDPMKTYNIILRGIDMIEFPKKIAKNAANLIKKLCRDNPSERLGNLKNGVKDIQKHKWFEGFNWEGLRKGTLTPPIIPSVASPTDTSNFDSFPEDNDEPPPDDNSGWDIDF
Chain of broad panel of kinases (Homo sapiens, UniProt P06239) (P06239 2-509 limits assumed): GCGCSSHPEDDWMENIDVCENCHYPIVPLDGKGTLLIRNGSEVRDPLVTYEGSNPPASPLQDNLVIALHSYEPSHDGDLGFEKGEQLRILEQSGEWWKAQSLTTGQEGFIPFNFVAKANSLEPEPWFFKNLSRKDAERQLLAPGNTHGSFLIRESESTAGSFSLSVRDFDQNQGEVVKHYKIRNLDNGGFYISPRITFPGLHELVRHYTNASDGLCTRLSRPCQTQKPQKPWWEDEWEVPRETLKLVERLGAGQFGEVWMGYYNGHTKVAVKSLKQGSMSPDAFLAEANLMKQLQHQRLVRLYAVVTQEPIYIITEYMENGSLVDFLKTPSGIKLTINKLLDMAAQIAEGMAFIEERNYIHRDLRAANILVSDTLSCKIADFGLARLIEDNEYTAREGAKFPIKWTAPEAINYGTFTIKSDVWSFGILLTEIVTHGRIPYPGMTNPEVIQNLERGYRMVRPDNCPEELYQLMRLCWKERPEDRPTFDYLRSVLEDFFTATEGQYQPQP
Chain of broad panel of kinases (Homo sapiens, UniProt P54764) (P54764 20-986 limits assumed): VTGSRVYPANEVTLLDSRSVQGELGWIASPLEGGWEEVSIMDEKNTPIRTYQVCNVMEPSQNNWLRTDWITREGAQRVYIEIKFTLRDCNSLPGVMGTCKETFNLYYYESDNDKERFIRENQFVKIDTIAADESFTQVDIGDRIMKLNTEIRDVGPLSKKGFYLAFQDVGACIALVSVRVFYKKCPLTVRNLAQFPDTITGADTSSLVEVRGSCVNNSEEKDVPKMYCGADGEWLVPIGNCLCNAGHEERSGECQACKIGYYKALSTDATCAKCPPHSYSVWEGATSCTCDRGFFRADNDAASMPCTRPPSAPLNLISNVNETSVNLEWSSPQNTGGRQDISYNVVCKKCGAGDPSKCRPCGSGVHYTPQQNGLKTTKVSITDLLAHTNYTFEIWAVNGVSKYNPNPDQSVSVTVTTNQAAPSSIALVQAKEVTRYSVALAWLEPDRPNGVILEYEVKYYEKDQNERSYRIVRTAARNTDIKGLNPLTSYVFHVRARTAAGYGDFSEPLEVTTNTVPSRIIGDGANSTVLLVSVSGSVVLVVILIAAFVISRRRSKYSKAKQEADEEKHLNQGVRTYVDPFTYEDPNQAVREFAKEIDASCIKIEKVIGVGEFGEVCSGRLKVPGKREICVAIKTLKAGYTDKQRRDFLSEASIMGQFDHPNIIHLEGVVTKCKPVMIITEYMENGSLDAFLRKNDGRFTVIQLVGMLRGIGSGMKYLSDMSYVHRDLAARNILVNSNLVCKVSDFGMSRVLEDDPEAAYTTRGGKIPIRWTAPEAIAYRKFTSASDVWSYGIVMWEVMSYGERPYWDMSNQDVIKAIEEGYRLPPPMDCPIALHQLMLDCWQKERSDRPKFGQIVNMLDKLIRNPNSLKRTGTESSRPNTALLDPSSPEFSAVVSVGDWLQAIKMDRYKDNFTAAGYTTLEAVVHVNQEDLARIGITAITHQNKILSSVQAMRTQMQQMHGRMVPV
Chain of broad panel of kinases (Homo sapiens, UniProt Q08345) (Q08345 19-913 limits assumed): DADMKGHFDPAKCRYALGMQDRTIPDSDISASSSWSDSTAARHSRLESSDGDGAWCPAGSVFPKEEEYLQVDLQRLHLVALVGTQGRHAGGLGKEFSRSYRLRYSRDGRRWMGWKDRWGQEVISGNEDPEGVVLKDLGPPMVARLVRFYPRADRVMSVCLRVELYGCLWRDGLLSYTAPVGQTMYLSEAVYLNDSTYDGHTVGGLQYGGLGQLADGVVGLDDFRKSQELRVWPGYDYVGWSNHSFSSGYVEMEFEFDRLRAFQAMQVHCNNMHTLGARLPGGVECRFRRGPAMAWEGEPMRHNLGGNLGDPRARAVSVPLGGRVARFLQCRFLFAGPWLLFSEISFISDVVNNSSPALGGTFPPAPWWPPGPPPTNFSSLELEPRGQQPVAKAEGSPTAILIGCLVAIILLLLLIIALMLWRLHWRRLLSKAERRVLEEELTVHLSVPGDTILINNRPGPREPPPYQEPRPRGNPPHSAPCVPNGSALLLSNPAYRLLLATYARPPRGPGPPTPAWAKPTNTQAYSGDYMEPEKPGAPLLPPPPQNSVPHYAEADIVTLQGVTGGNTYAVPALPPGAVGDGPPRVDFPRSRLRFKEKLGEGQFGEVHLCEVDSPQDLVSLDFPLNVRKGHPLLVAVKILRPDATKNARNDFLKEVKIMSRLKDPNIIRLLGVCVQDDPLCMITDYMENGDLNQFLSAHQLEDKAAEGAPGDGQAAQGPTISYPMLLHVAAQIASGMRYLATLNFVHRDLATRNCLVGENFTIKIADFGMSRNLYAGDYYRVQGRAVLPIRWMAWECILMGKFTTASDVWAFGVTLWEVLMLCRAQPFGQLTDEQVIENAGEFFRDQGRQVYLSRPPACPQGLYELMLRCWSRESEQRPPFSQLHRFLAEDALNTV
Chain of broad panel of kinases (Homo sapiens, UniProt P22455) (P22455 22-802 limits assumed): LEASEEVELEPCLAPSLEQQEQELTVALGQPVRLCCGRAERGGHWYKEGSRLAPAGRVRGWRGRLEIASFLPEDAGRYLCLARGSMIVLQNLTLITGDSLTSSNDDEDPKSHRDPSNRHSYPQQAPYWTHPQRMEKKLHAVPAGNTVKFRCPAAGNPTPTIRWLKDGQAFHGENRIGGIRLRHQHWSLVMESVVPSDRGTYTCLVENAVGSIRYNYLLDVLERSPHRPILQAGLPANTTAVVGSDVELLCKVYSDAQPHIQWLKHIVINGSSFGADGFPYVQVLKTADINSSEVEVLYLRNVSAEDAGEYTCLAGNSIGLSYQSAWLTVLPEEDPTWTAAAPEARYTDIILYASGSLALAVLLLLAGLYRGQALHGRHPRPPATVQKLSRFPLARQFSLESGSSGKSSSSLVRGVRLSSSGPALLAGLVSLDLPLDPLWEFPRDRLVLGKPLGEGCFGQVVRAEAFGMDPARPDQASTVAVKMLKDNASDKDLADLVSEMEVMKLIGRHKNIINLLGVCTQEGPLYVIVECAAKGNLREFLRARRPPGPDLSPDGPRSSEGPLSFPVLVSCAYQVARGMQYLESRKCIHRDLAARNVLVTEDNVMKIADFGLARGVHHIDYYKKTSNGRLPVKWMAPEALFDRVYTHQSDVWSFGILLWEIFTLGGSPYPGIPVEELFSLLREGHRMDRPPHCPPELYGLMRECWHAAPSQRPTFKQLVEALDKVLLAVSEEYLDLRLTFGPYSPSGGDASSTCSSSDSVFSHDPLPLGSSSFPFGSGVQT
Chain of broad panel of kinases (Homo sapiens, UniProt Q16539) (Q16539 2-360 limits assumed): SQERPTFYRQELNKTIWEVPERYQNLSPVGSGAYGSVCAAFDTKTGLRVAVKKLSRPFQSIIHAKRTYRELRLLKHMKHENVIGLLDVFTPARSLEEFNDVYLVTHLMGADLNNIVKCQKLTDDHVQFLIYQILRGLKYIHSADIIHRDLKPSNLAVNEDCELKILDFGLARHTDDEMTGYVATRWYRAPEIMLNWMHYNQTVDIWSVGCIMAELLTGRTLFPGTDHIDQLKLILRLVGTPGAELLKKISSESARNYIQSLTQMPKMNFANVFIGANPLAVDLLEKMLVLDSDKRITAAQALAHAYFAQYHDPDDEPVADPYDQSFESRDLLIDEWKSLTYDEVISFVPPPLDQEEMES

Question: `C=CC(=O)N1CC[C@H](Nc2nc(CN3CCOCC3)cc(Nc3ncc(C(=O)Nc4c(C)cccc4C)s3)n2)C1` [Example I-2] was tested. Which “percent of control binding remaining (lower = stronger binding)” value (broad panel of kinases [1]) did it give?
Answer: 100%

Question: And the “percent of control binding remaining (lower = stronger binding)” value (broad panel of kinases [2])?
Answer: 0.2%

Question: And the “percent of control binding remaining (lower = stronger binding)” value (broad panel of kinases [3])?
Answer: 99%

Question: What about the “percent of control binding remaining (lower = stronger binding)” value (broad panel of kinases [4]) of the same molecule?
Answer: 100%

Question: What about the “percent of control binding remaining (lower = stronger binding)” value (broad panel of kinases [5]) of the same molecule?
Answer: 100%

Question: What about the “percent of control binding remaining (lower = stronger binding)” value (broad panel of kinases [6]) of the same molecule?
Answer: 67%

Question: What about the “percent of control binding remaining (lower = stronger binding)” value (broad panel of kinases [7]) of the same molecule?
Answer: 90%

Question: And the “percent of control binding remaining (lower = stronger binding)” value (broad panel of kinases [8])?
Answer: 84%

Question: What about the “percent of control binding remaining (lower = stronger binding)” value (broad panel of kinases [9]) of the same molecule?
Answer: 100%

Question: And the “percent of control binding remaining (lower = stronger binding)” value (broad panel of kinases [10])?
Answer: 100%

Question: And the “percent of control binding remaining (lower = stronger binding)” value (broad panel of kinases [11]; ABL1(F317I)-nonphosphorylated)?
Answer: 0.15%

Question: What about the “percent of control binding remaining (lower = stronger binding)” value (broad panel of kinases [11]; ABL1(F317I)-phosphorylated) of the same molecule?
Answer: 5.4%

Question: And the “percent of control binding remaining (lower = stronger binding)” value (broad panel of kinases [12])?
Answer: 51%

Question: What about the “percent of control binding remaining (lower = stronger binding)” value (broad panel of kinases [13]) of the same molecule?
Answer: 88%

Question: What about the “percent of control binding remaining (lower = stronger binding)” value (broad panel of kinases [14]) of the same molecule?
Answer: 96%

Question: And the “percent of control binding remaining (lower = stronger binding)” value (broad panel of kinases [15])?
Answer: 93%

Question: What about the “percent of control binding remaining (lower = stronger binding)” value (broad panel of kinases [16]) of the same molecule?
Answer: 94%

Question: What about the “percent of control binding remaining (lower = stronger binding)” value (broad panel of kinases [17]) of the same molecule?
Answer: 90%

Question: What about the “percent of control binding remaining (lower = stronger binding)” value (broad panel of kinases [18]) of the same molecule?
Answer: 90%

Question: And the “percent of control binding remaining (lower = stronger binding)” value (broad panel of kinases [19])?
Answer: 100%

Question: What about the “percent of control binding remaining (lower = stronger binding)” value (broad panel of kinases [20]) of the same molecule?
Answer: 100%

Question: And the “percent of control binding remaining (lower = stronger binding)” value (broad panel of kinases [21])?
Answer: 86%

Question: And the “percent of control binding remaining (lower = stronger binding)” value (broad panel of kinases [22])?
Answer: 99%

Question: What about the “percent of control binding remaining (lower = stronger binding)” value (broad panel of kinases [23]) of the same molecule?
Answer: 100%

Question: And the “percent of control binding remaining (lower = stronger binding)” value (broad panel of kinases [24])?
Answer: 95%

Question: And the “percent of control binding remaining (lower = stronger binding)” value (broad panel of kinases [25])?
Answer: 100%

Question: And the “percent of control binding remaining (lower = stronger binding)” value (broad panel of kinases [26])?
Answer: 100%

Question: And the “percent of control binding remaining (lower = stronger binding)” value (broad panel of kinases [27])?
Answer: 89%

Question: What about the “percent of control binding remaining (lower = stronger binding)” value (broad panel of kinases [28]) of the same molecule?
Answer: 96%

Question: And the “percent of control binding remaining (lower = stronger binding)” value (broad panel of kinases [29])?
Answer: 0.65%

Question: And the “percent of control binding remaining (lower = stronger binding)” value (broad panel of kinases [30])?
Answer: 93%

Question: And the “percent of control binding remaining (lower = stronger binding)” value (broad panel of kinases [31])?
Answer: 87%

Question: And the “percent of control binding remaining (lower = stronger binding)” value (broad panel of kinases [32])?
Answer: 99%

Question: What about the “percent of control binding remaining (lower = stronger binding)” value (broad panel of kinases [33]) of the same molecule?
Answer: 100%

Question: What about the “percent of control binding remaining (lower = stronger binding)” value (broad panel of kinases [34]) of the same molecule?
Answer: 0%

Question: And the “percent of control binding remaining (lower = stronger binding)” value (broad panel of kinases [35])?
Answer: 0.1%

Question: What about the “percent of control binding remaining (lower = stronger binding)” value (broad panel of kinases [36]) of the same molecule?
Answer: 100%

Question: And the “percent of control binding remaining (lower = stronger binding)” value (broad panel of kinases [37])?
Answer: 0%

Question: Which “percent of control binding remaining (lower = stronger binding)” value (broad panel of kinases [1]) does the source give for `C=CC(=O)N1CC[C@H](Nc2nccc(Nc3ncc(C(=O)Nc4c(C)cccc4C)s3)n2)C1` [Example I-3] here?
Answer: 100%

Question: What about the “percent of control binding remaining (lower = stronger binding)” value (broad panel of kinases [2]) of the same molecule?
Answer: 0.15%

Question: And the “percent of control binding remaining (lower = stronger binding)” value (broad panel of kinases [3])?
Answer: 91%

Question: What about the “percent of control binding remaining (lower = stronger binding)” value (broad panel of kinases [4]) of the same molecule?
Answer: 100%

Question: What about the “percent of control binding remaining (lower = stronger binding)” value (broad panel of kinases [5]) of the same molecule?
Answer: 100%

Question: What about the “percent of control binding remaining (lower = stronger binding)” value (broad panel of kinases [6]) of the same molecule?
Answer: 100%

Question: What about the “percent of control binding remaining (lower = stronger binding)” value (broad panel of kinases [7]) of the same molecule?
Answer: 98%

Question: And the “percent of control binding remaining (lower = stronger binding)” value (broad panel of kinases [8])?
Answer: 72%

Question: And the “percent of control binding remaining (lower = stronger binding)” value (broad panel of kinases [9])?
Answer: 100%

Question: And the “percent of control binding remaining (lower = stronger binding)” value (broad panel of kinases [10])?
Answer: 100%

Question: What about the “% change compared to control” value (broad panel of kinases [11]; ABL1(F317I)-nonphosphorylated) of the same molecule?
Answer: 1.2%

Question: What about the “% change compared to control” value (broad panel of kinases [11]; ABL1(F317I)-phosphorylated) of the same molecule?
Answer: 5.2%

Question: And the “percent of control binding remaining (lower = stronger binding)” value (broad panel of kinases [12])?
Answer: 66%

Question: What about the “percent of control binding remaining (lower = stronger binding)” value (broad panel of kinases [13]) of the same molecule?
Answer: 74%

Question: What about the “percent of control binding remaining (lower = stronger binding)” value (broad panel of kinases [14]) of the same molecule?
Answer: 94%

Question: What about the “percent of control binding remaining (lower = stronger binding)” value (broad panel of kinases [15]) of the same molecule?
Answer: 98%

Question: What about the “percent of control binding remaining (lower = stronger binding)” value (broad panel of kinases [16]) of the same molecule?
Answer: 92%

Question: And the “percent of control binding remaining (lower = stronger binding)” value (broad panel of kinases [17])?
Answer: 100%

Question: What about the “percent of control binding remaining (lower = stronger binding)” value (broad panel of kinases [18]) of the same molecule?
Answer: 71%

Question: And the “percent of control binding remaining (lower = stronger binding)” value (broad panel of kinases [19])?
Answer: 100%

Question: And the “percent of control binding remaining (lower = stronger binding)” value (broad panel of kinases [20])?
Answer: 93%

Question: And the “percent of control binding remaining (lower = stronger binding)” value (broad panel of kinases [21])?
Answer: 47%

Question: And the “percent of control binding remaining (lower = stronger binding)” value (broad panel of kinases [22])?
Answer: 100%

Question: And the “percent of control binding remaining (lower = stronger binding)” value (broad panel of kinases [23])?
Answer: 84%

Question: What about the “percent of control binding remaining (lower = stronger binding)” value (broad panel of kinases [24]) of the same molecule?
Answer: 100%

Question: And the “percent of control binding remaining (lower = stronger binding)” value (broad panel of kinases [25])?
Answer: 97%

Question: And the “percent of control binding remaining (lower = stronger binding)” value (broad panel of kinases [26])?
Answer: 86%

Question: What about the “percent of control binding remaining (lower = stronger binding)” value (broad panel of kinases [27]) of the same molecule?
Answer: 92%

Question: What about the “percent of control binding remaining (lower = stronger binding)” value (broad panel of kinases [28]) of the same molecule?
Answer: 96%

Question: And the “% change compared to control” value (broad panel of kinases [29])?
Answer: 0.55%

Question: What about the “percent of control binding remaining (lower = stronger binding)” value (broad panel of kinases [30]) of the same molecule?
Answer: 86%

Question: And the “percent of control binding remaining (lower = stronger binding)” value (broad panel of kinases [31])?
Answer: 84%

Question: And the “percent of control binding remaining (lower = stronger binding)” value (broad panel of kinases [32])?
Answer: 100%

Question: What about the “percent of control binding remaining (lower = stronger binding)” value (broad panel of kinases [33]) of the same molecule?
Answer: 85%

Question: What about the “percent of control binding remaining (lower = stronger binding)” value (broad panel of kinases [34]) of the same molecule?
Answer: 0%

Question: And the “percent of control binding remaining (lower = stronger binding)” value (broad panel of kinases [35])?
Answer: 0.2%

Question: And the “percent of control binding remaining (lower = stronger binding)” value (broad panel of kinases [36])?
Answer: 100%

Question: What about the “percent of control binding remaining (lower = stronger binding)” value (broad panel of kinases [37]) of the same molecule?
Answer: 0%
